Measured values as given in US12559529B2, “NPY2 receptor agonists” (Boehringer Ingelheim International GmbH, priority 2019, dated 2026).
*1 amine or outer side, *2 acyl side, *3 side chain or, on linkers, in order; H or OH if unused. Where a SMILES comes first, the peptide text is derived from it. Side-chain parts run from the residue outwards. The star is where a group is joined. C18 diacid = O=C(O)CCCCCCCCCCCCCCCCC(=O)*; γGlu = O=C(O)[C@H](CCC(=O)[*:2])N[*:1]; Isovaleryl = CC(C)CC(=O)*; AEEA = NCCOCCOCC(=O)O

Tests used:
normal NMRI mice = test: Effect on acute food intake in normal NMRI mice; format: in vivo; details: male NMRI mice, 10 nmol/kg subcutaneously once
Procedure: Male NMRI mice were obtained from Charles River (Charles River, Research Models & Services Germany GmbH) or from Jan Vier (Jan Vier Labs, France) at 5 weeks of age. […] Room temperature was controlled to 21° C.±1° C., with 60%+20% humidity.
Animals were transferred 5-7 days before the start of the study to a real-time food intake monitoring system, HM-2 system (MBRose, Denmark), to allow acclimatization to experimental conditions. As the animals were uniquely identified with microchips, each individual animal was identified by its microchip upon entry and exit from the food channel. Randomization of the mice for each study group (n=7-8) was based on body weight measured the day before the start of the study. A vehicle-treated (50 mM phosphate buffer pH7 with 5% Mannitol) group was included in each experiment. Six hours before the start of the night phase animals were fasted. One hour before the dark phase animals were dosed once subcutaneously (10 nmol/kg) with test peptide. […] The food intake of the treated groups was normalized (in %) to the average food intake of the group receiving vehicle (Table 7). Statistical significance was evaluated using One-way analysis of variance with Turkey's multiple comparison test. P<0.05 was considered statistically significant.

[1] = target: T1, Human Neuropeptide Y2 Receptor (Homo sapiens, UniProt P49146); test: Radioligand binding competition assay (RLB); details: Table 3; human 125I-PYY (1-36) 0.02 nM, Y2 receptor membranes; read-out: Ki
T1 construct: purchased CHEMICON HTS066M
T1 sequence (P49146 1-381): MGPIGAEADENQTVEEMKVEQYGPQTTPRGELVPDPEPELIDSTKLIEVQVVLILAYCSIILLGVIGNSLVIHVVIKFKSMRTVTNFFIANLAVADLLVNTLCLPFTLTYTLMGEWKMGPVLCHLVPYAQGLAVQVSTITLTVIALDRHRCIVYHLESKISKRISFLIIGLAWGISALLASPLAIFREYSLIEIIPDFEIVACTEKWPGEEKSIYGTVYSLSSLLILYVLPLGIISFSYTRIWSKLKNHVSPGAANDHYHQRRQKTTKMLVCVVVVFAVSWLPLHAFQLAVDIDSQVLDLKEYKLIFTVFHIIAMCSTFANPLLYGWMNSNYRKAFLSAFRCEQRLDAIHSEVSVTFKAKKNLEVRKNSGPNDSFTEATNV
In short: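 Membranes from cells expressing human Y2 receptor (0.5 μg protein/well) were incubated with radioligand and serially diluted peptides in 50 mM HEPES, 5 mM MgCl2, 1 mM CaCl2, 0.2% ovalbumin, pH 7.4, for 2 h at room temperature with shaking. Bound radioactivity was collected by filtration and counted; IC50 from sigmoidal nonlinear regression.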

Compound | Acute Food Intake 24 h [% vehicle] (normal NMRI mice) | Ki [1] [nM]
CC(C)CC(=O)N[C@@H](C)C(=O)N1CCC[C@H]1C(=O)N[C@@H](CCC(=O)O)C(=O)N[C@@H](CCCCNC(=O)COCCOCCNC(=O)COCCOCCNC(=O)CC[C@H](NC(=O)CCCCCCCCCCCCCCCCC(=O)O)C(=O)O)C(=O)N1CCC[C@H]1C(=O)N[C@@H](CCC(=O)O)C(=O)N[C@@H](C)C(=O)N[C@@H](CC(=O)O)C(=O)N[C@@H](C)C(=O)N[C@@H](CO)C(=O)N[C@@H](CCC(=O)O)C(=O)N[C@@H](CCC(=O)O)C(=O)N[C@@H](CCC(=O)O)C(=O)N[C@@H](CC(C)C)C(=O)N[C@@H](CCC(N)=O)C(=O)N[C@@H](CCCNC(=N)N)C(=O)N[C@@H](Cc1ccc(O)cc1)C(=O)N[C@@H](Cc1ccc(O)cc1)C(=O)N[C@H](C(=O)N[C@@H](CO)C(=O)N[C@@H](CC(C)C)C(=O)N[C@@H](CCCNC(=N)N)C(=O)N[C@@H](Cc1c[nH]cn1)C(=O)N[C@@H](Cc1ccc(O)cc1)C(=O)N[C@@H](Cc1ccc(O)cc1)C(=O)N[C@@H](CC(N)=O)C(=O)N[C@@H](Cc1c[nH]c2ccccc12)C(=O)N[C@@H](CC(C)C)C(=O)N[C@H](C(=O)N[C@@H](CCCNC(=N)N)C(=O)N[C@@H](CCC(N)=O)C(=O)N[C@@H](CCCNC(=N)N)C(=O)N[C@@H](Cc1ccc(O)cc1)C(N)=O)[C@@H](C)O)C(C)C [Compound 30, N{alpha-4}-(3-methylbutanoyl)-N{epsilon-7}-[2-(2-{2-[2-(2-{2-[(4S)-4-carboxy-4-(17-carboxyheptadecanamido)butanamido]ethoxy}ethoxy)acetamido]ethoxy}ethoxy)acetamido]-[4A,7K,9E,10A,14E,18Q,22V,28Y,30W,31L]hPYY (4-36)] | 45 | 
CC(C)CC(=O)N[C@@H](C)C(=O)N1CCC[C@H]1C(=O)N[C@@H](CCC(=O)O)C(=O)N[C@@H](CCCCNC(=O)COCCOCCNC(=O)COCCOCCNC(=O)CC[C@H](NC(=O)CCCCCCCCCCCCCCCCC(=O)O)C(=O)O)C(=O)N1CCC[C@H]1C(=O)N[C@@H](CCC(=O)O)C(=O)N[C@@H](CCC(=O)O)C(=O)N[C@@H](CC(=O)O)C(=O)N[C@@H](C)C(=O)N[C@@H](CO)C(=O)N1CCC[C@H]1C(=O)N[C@@H](CCC(=O)O)C(=O)N[C@@H](CCC(=O)O)C(=O)N[C@@H](CC(C)C)C(=O)N[C@@H](CCC(N)=O)C(=O)N[C@@H](CCC(N)=O)C(=O)N[C@@H](Cc1ccc(O)cc1)C(=O)N[C@@H](Cc1ccc(O)cc1)C(=O)N[C@H](C(=O)N[C@@H](CO)C(=O)N[C@@H](CC(C)C)C(=O)N[C@@H](CCCNC(=N)N)C(=O)N[C@@H](Cc1c[nH]cn1)C(=O)N[C@@H](Cc1ccc(O)cc1)C(=O)N[C@@H](Cc1ccc(O)cc1)C(=O)N[C@@H](CC(N)=O)C(=O)N[C@@H](Cc1c[nH]c2ccccc12)C(=O)N[C@@H](CC(C)C)C(=O)N[C@H](C(=O)N[C@@H](CCCNC(=N)N)C(=O)N[C@@H](CCC(N)=O)C(=O)N[C@@H](CCCNC(=N)N)C(=O)N[C@@H](Cc1ccc(O)cc1)C(N)=O)[C@@H](C)O)C(C)C [Compound 58, N{alpha-4}-(3-methylbutanoyl)-N{epsilon-7}-[2-(2-{2-[2-(2-{2-[(4S)-4-carboxy-4-(17-carboxyheptadecanamido)butanamido]ethoxy}ethoxy)acetamido]ethoxy}ethoxy)acetamido]-[4A,7K,9E,18Q,19Q,22V,28Y,30W,31L]hPYY (4-36)] | 44 | 
CC(C)CC(=O)N[C@@H](C)C(=O)N1CCC[C@H]1C(=O)N[C@@H](CCC(=O)O)C(=O)N[C@@H](CCCCNC(=O)COCCOCCNC(=O)COCCOCCNC(=O)CC[C@H](NC(=O)CCCCCCCCCCCCCCCCC(=O)O)C(=O)O)C(=O)N1CCC[C@H]1C(=O)N[C@@H](CCC(=O)O)C(=O)N[C@@H](CCC(=O)O)C(=O)N[C@@H](CCC(=O)O)C(=O)N[C@@H](C)C(=O)N[C@@H](CO)C(=O)N1CCC[C@H]1C(=O)N[C@@H](CCC(=O)O)C(=O)N[C@@H](CCC(=O)O)C(=O)N[C@@H](CC(C)C)C(=O)N[C@@H](CCC(N)=O)C(=O)N[C@@H](CCCNC(=N)N)C(=O)N[C@@H](Cc1ccc(O)cc1)C(=O)N[C@@H](CCC(=O)O)C(=O)N[C@H](C(=O)N[C@@H](CO)C(=O)N[C@@H](CC(C)C)C(=O)N[C@@H](CCCNC(=N)N)C(=O)N[C@@H](Cc1c[nH]cn1)C(=O)N[C@@H](Cc1ccc(O)cc1)C(=O)N[C@@H](Cc1ccc(O)cc1)C(=O)N[C@@H](CC(N)=O)C(=O)N[C@@H](Cc1c[nH]c2ccccc12)C(=O)N[C@@H](CC(C)C)C(=O)N[C@H](C(=O)N[C@@H](CCCNC(=N)N)C(=O)N[C@@H](CCC(N)=O)C(=O)N[C@@H](CCCNC(=N)N)C(=O)N[C@@H](Cc1ccc(O)cc1)C(N)=O)[C@@H](C)O)C(C)C [Compound 154, N{alpha-4}-(3-methylbutanoyl)-N{epsilon-7}-[2-(2-{2-[2-(2-{2-[(4S)-4-carboxy-4-(17-carboxyheptadecanamido)butanamido]ethoxy}ethoxy)acetamido]ethoxy}ethoxy)acetamido]-[4A,7K,9E,11E,18Q,21E,22V,28Y,30W,31L]hPYY (4-36)] (Isovaleryl-APEK([AEEA-AEEA-γGlu-C18 diacid])PEEEASPEELQRYEVSLRHYYNWLTRQRY-NH2) | 73 | 
CC(C)CC(=O)N[C@@H](C)C(=O)N1CCC[C@H]1C(=O)N[C@@H](CCC(=O)O)C(=O)N[C@@H](CCCCNC(=O)COCCOCCNC(=O)COCCOCCNC(=O)CC[C@H](NC(=O)CCCCCCCCCCCCCCCCC(=O)O)C(=O)O)C(=O)N1CCC[C@H]1C(=O)N[C@@H](CCC(=O)O)C(=O)N[C@@H](C)C(=O)N[C@@H](CC(=O)O)C(=O)N[C@@H](C)C(=O)N[C@@H](CO)C(=O)N1CCC[C@H]1C(=O)N[C@@H](CCC(=O)O)C(=O)N[C@@H](CCC(=O)O)C(=O)N[C@@H](CC(C)C)C(=O)N[C@@H](CCC(=O)O)C(=O)N[C@@H](CCC(N)=O)C(=O)N[C@@H](Cc1ccc(O)cc1)C(=O)N[C@@H](Cc1ccc(O)cc1)C(=O)N[C@H](C(=O)N[C@@H](CO)C(=O)N[C@@H](CC(C)C)C(=O)N[C@@H](CCCNC(=N)N)C(=O)N[C@@H](Cc1c[nH]cn1)C(=O)N[C@@H](Cc1ccc(O)cc1)C(=O)N[C@@H](Cc1ccc(O)cc1)C(=O)N[C@@H](CC(N)=O)C(=O)N[C@@H](Cc1c[nH]c2ccccc12)C(=O)N[C@@H](CC(C)C)C(=O)N[C@H](C(=O)N[C@@H](CCCNC(=N)N)C(=O)N[C@@H](CCC(N)=O)C(=O)N[C@@H](CCCNC(=N)N)C(=O)N[C@@H](Cc1ccc(O)cc1)C(N)=O)[C@@H](C)O)C(C)C [Compound 159, N{alpha-4}-(3-methylbutanoyl)-N{epsilon-7}-[2-(2-{2-[2-(2-{2-[(4S)-4-carboxy-4-(17-carboxyheptadecanamido)butanamido]ethoxy}ethoxy)acetamido]ethoxy}ethoxy)acetamido]-[4A,7K,9E,10A,18E,19Q,22V,28Y,30W,31L]hPYY (4-36)] | 53 | 
CC(C)CC(=O)N[C@@H](C)C(=O)N1CCC[C@H]1C(=O)N[C@@H](CCC(=O)O)C(=O)N[C@@H](CCCCNC(=O)COCCOCCNC(=O)COCCOCCNC(=O)CC[C@H](NC(=O)CCCCCCCCCCCCCCCCC(=O)O)C(=O)O)C(=O)N1CCC[C@H]1C(=O)N[C@@H](CCC(=O)O)C(=O)N[C@@H](CCC(=O)O)C(=O)N[C@@H](CCC(=O)O)C(=O)N[C@@H](C)C(=O)N[C@@H](CO)C(=O)N1CCC[C@H]1C(=O)N[C@@H](CCC(=O)O)C(=O)N[C@@H](CCC(=O)O)C(=O)N[C@@H](CC(C)C)C(=O)N[C@@H](CCC(N)=O)C(=O)N[C@@H](CCC(N)=O)C(=O)N[C@@H](Cc1ccc(O)cc1)C(=O)N[C@@H](Cc1ccc(O)cc1)C(=O)N[C@H](C(=O)N[C@@H](CO)C(=O)N[C@@H](CC(C)C)C(=O)N[C@@H](CCCNC(=N)N)C(=O)N[C@@H](Cc1c[nH]cn1)C(=O)N[C@@H](Cc1ccc(O)cc1)C(=O)N[C@@H](Cc1ccc(O)cc1)C(=O)N[C@@H](CC(N)=O)C(=O)N[C@@H](Cc1c[nH]c2ccccc12)C(=O)N[C@@H](CC(C)C)C(=O)N[C@H](C(=O)N[C@@H](CCCNC(=N)N)C(=O)N[C@@H](CCC(N)=O)C(=O)N[C@@H](CCCNC(=N)N)C(=O)N[C@@H](Cc1ccc(O)cc1)C(N)=O)[C@@H](C)O)C(C)C [Compound 243, N{alpha-4}-(3-methylbutanoyl)-N{epsilon-7}-[2-(2-{2-[2-(2-{2-[(4S)-4-carboxy-4-(17-carboxyheptadecanamido)butanamido]ethoxy}ethoxy)acetamido]ethoxy}ethoxy)acetamido]-[4A,7K,9E,11E,18Q,19Q,22V,28Y,30W,31L]hPYY (4-36)] (Isovaleryl-APEK([AEEA-AEEA-γGlu-C18 diacid])PEEEASPEELQQYYVSLRHYYNWLTRQRY-NH2) |  | 2.07
